Results taken from patent US7803792B2, “Quaternary ammonium compounds” (Asahi Kasei Pharma Corporation, priority 2002, dated 2010).

What was measured:
rat IBAT = target: T1, rat IBAT (Rattus norvegicus, UniProt Q62633); assay: In vitro assay of temporarily expressed rat IBAT transporter using Cos 7 cells (Test Example 8); format: cell-based; details: Cos 7 cells temporarily expressing rat IBAT; [3H] taurocholate 8 μM, 37° C., 60 minutes
T1 construct: expressed in transfected cells; host or cells: Cos 7
T1 sequence (Q62633 1-348): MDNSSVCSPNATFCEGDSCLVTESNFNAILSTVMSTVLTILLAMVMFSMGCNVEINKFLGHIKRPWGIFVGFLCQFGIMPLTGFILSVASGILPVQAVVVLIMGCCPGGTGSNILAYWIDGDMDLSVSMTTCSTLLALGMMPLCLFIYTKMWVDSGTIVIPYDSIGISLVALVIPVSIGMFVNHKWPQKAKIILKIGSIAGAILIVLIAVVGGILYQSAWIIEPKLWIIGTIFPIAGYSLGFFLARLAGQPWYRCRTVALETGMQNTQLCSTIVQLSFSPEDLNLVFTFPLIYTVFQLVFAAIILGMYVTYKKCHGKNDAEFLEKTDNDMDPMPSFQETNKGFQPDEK
Procedure: In Vitro Assay of Compounds Which Inhibit Temporarily Expressed Human IBAT Transporter or Rat IBAT Transporter Using Cos 7 Cells
In this test example, the in vitro assay of the compounds which inhibit temporarily expressed human IBAT transporter or rat IBAT transporter using Cos cells was carried out according to the method described in Am. J. Physiol., 274, G157-169.
That is, […] Cos 7 were inoculated on a 24-well cell plate. One day later, 0.3 μg per well of cDNA of a human IBAT or a rat IBAT was transfected by using FuGENE6 (manufactured by ROCHE PHARMACEUTICAL CO., LTD.). For the assay, the cells cultured for one day after the transfection were used and the following procedure was followed. The cells were washed once with an assay buffer, Hank's buffer solution containing 25 mM glucose and with 10 mM HEPES (pH 7.4), and then the assay buffer was replaced by an assay buffer to which the test compound was added. After adding [^3H] taurocholate to a final concentration of 8 μM, the cells were incubated at 37° C. for 60 minutes. [^3H] taurocholate was allowed to be incorporated in Cos 7 cells through human IBAT or rat IBAT. The reaction was stopped by washing twice with a buffer prepared by adding 1 mM taurocholate to the assay buffer and lyzing the cells with 0.2M NaOH. Measurement of radioactivity was carried out by introducing the cell lyzate in 4 ml of liquid scintillation cocktail, stirring the mixture well, and then measuring the radioactivity by a scintillation counter.

human IBAT = target: T2, human IBAT (Homo sapiens, UniProt Q12908); assay: In vitro assay of temporarily expressed human IBAT transporter using Cos 7 cells (Test Example 8); format: cell-based; details: Cos 7 cells temporarily expressing human IBAT; [3H] taurocholate 8 μM, 37° C., 60 minutes
T2 construct: expressed in transfected cells; host or cells: Cos 7
T2 sequence (Q12908 1-348): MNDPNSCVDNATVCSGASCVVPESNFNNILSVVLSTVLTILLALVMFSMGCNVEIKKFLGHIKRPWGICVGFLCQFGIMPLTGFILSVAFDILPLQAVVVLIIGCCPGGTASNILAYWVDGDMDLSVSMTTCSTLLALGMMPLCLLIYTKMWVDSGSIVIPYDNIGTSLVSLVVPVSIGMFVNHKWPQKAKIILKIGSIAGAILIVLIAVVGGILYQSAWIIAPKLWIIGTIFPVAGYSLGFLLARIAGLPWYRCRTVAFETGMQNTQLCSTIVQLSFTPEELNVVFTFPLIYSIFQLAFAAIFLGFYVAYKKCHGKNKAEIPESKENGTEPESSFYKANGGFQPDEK
Procedure, shortened: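 Cos 7 cells transiently transfected with human or rat IBAT cDNA, assayed one day later in Hank's buffer with 25 mM glucose, 10 mM HEPES (pH 7.4) plus compound. Uptake of 8 μM [^3H]taurocholate over 60 min at 37 °C, stopped with 1 mM taurocholate washes; lysate radioactivity by scintillation counting.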

[1] = test system: Cholic acid-loaded rat model; assay: Bile acid-decreasing effect in portal vein of rats loaded with cholic acid (Test Example 2); format: in vivo; details: 0.1 mg/kg oral with cholic acid 200 mg/kg, portal vein blood after 2 hours
Procedure, shortened: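 SD (IGS) rats aged 7 to 9 weeks were fasted from the day before testing, then given cholic acid (200 mg/kg) together with the test compound by forced oral dosing. Portal vein blood was drawn 2 hours later, and total serum bile acid was measured with a commercial kit (n=6). The percent decrease was calculated relative to a cholic acid-only control group set at 100%.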

Caco 2 cells = assay: Toxicity with respect to alimentary canal: cytotoxicity to Caco 2, LDH activity (Test Example 12); format: cell-based, human; details: LDH activity after 2 hours, relative to cytolytic agent = 100%
Procedure, shortened: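 Human Caco 2 intestinal cells, cultured 48 hours after seeding at 10,000 cells/well, received test compounds diluted in medium. LDH released into the medium after 2 hours was measured and expressed relative to cytolytic-agent-lysed cells (100%) as cytotoxicity.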

Row | Compound | IC50 (rat IBAT) [nM] | IC50 (human IBAT) [nM] | Rate of decrease (%) of bile acid ([1]; HCO-60 0.1%) [%] | Toxicity (%) to Caco 2 (Caco 2 cells; 3 μM) [%] | Toxicity (%) to Caco 2 (Caco 2 cells; 10 μM) [%] | Toxicity (%) to Caco 2 (Caco 2 cells; 30 μM) [%] | Rate of decrease (%) of bile acid ([1]; Tween 20 0.05%) [%]
1 | CCCCC1(CCCC)CS(=O)(=O)c2ccc(N(C)C)cc2C(c2cccc(NC(=S)NCCC[N+]34CCC(CC3)CC4)c2)N1 (centres unmarked) [Example 9, 1-(3-{3-[3,3-Dibutyl-7-dimethylamino-1,1-dioxo-2,3,4,5-tetrahydro-1,4-benzothiazepin-5-yl)phenyl]thioureido}-propyl)-1-azoniabicyclo[2.2.2]octane bromide] | 36 | 76 |  |  |  |  | 
2 | CCCCC1(CCCC)CS(=O)(=O)c2ccc(N(C)C)cc2C(c2cccc(NC(=S)Nc3ccc(C[N+]45CCC(CC4)CC5)cc3)c2)N1.[Br-] (centres unmarked) [Example 3695] | 5 | 37 | 23 | <1 | <1 | <1 | 
3 | CCCCC1(CCCC)CS(=O)(=O)c2ccc(N(C)C)cc2C(c2cccc(NC(=S)CCCCC[N+]34CCC(c5ccccc5)(CC3)CC4)c2)N1 (centres unmarked) [Example 3853] | 9 | 28 | 36 | <1 | <1 | <1 | 
4 | CCCCC1(CCCC)CS(=O)(=O)c2ccc(N(C)C)cc2C(c2cccc(NC(=S)CCCCCCC[N+]34CCC(CC3)CC4)c2)N1 (centres unmarked) [Example 3932] | 9 | 36 |  |  |  |  | 30
